Test results from patent US10822317B2, “Methods and compositions for wound healing” (QBiotics Limited, priority 2013, dated 2020).

Columns and labels:
HaCaT cells = experiment: HaCaT proliferation (MTT); assay type: cell-based, human; parameters: dose or concentration left out as unconfirmed; conditions: 24, 48, 120 and 168 hr; p<0.01
From the text: The proliferation experiment assessed the effects of the two compounds on HaCaT proliferation (as measured by MTT) in the culture system at 4 time periods (24, 48, 120 and 168 hr).

neutrophils = experiment: Induction of reactive oxygen burst by neutrophils; assay type: cell-based, human; conditions: 1 ng/ml to 100 μg/ml; 15 min; DHE, flow cytometry
Procedure: Neutrophils were isolated from fresh blood of a healthy human donor by lysis of a red blood cell pellet that had been obtained by Ficoll-Paque sedimentation. The neutrophils (˜4×10^6 cells/ml) were incubated with 10 μg/ml dihydroethidium (DHE) (Sigma-Aldrich) in complete culture medium at 37° C. for 15 min alongside an aliquot of unstained cells to be tested as unstained control. This incubation was followed by treatment with Compound 1 at a range of concentrations (0, 1 ng/ml, 10 ng/ml, 100 ng/ml, 1 μg/ml, 10 μg/ml, 100 μg/ml) for 15 min. The generation of reactive oxygen species following incubation was determined using a FACS Canto flow cytometer to measure fluorescence due to oxidation of DHE to the ethidium ion.

[1] = test system: human peripheral blood mononuclear cells (PBMCs); experiment: Cytokine production by PBMCs (Cytometric Bead Array); assay type: cell-based; conditions: 24 hr, ± standard deviation
From the text: Specific cytokines play critical roles in wound healing processes, and agents that modulate these substances may be useful in treating wounds and/or improving the cosmetic outcomes of healing (e.g. reduced scarring). The effects of Compounds 1, 2, 5 and 42 on regulation of four cytokines (IL-1β, IL-6, IL-8 and TNFα) known to be critical in early stages of the wound healing process were investigated in human peripheral blood mononuclear cells (PBMCs).
PBMCs were isolated by Ficoll-Paque sedimentation of heparinised blood acquired from both a person (Donor 1) and (Donor 2) human donor. All cells were cultured in 10% FCS, RPMI as detailed previously.
PBMCs were seeded at a density of 1.5×10^5 cells per well in 10% FCS, RPMI. Stimulation of these cells with the four compounds was performed at four concentrations (0 ng/mL, 3 ng/mL, 30 ng/mL, 300 ng/mL) in duplicate for 24 h in a humidified incubator at 37° C., 5% CO2. Media samples were taken from each of the required wells and frozen at −80° C. until use.
Cytometric Bead Array (CBA) assays were used to measure the results. CBA assays provide a method for capturing a soluble analyte or set of analytes using antibody coated beads of known sizes and fluorescence. Detection is then performed using another fluorescently labelled secondary antibody to form a sandwich complex. Each media sample was assayed for the presence of soluble […], IL-6, IL-8, IL-10, IL-12p70 and TNFα using a BD (Becton Dickinson) CBA Human Inflammatory Cytokine Detection Kit according to manufacturers' instructions. Mean fluorescence intensity values from each sample were compared against a standard curve to determine cytokine concentrations (pg/mL).

Structure (SMILES)	IL-1β level ([1]; Donor 1, 3 ng/mL) [pg/mL]	IL-6 level ([1]; Donor 1, 3 ng/mL) [pg/mL]	IL-8 level ([1]; Donor 1, 3 ng/mL) [pg/mL]	TNFα level ([1]; Donor 1, 3 ng/mL) [pg/mL]	IL-1β level ([1]; Donor 1, 30 ng/mL) [pg/mL]	IL-6 level ([1]; Donor 1, 30 ng/mL) [pg/mL]	IL-8 level ([1]; Donor 1, 30 ng/mL) [pg/mL]	TNFα level ([1]; Donor 1, 30 ng/mL) [pg/mL]	IL-1β level ([1]; Donor 1, 300 ng/mL) [pg/mL]	IL-6 level ([1]; Donor 1, 300 ng/mL) [pg/mL]	IL-8 level ([1]; Donor 1, 300 ng/mL) [pg/mL]	TNFα level ([1]; Donor 1, 300 ng/mL) [pg/mL]	IL-1β level ([1]; Donor 2, 3 ng/mL) [pg/mL]	IL-6 level ([1]; Donor 2, 3 ng/mL) [pg/mL]	IL-8 level ([1]; Donor 2, 3 ng/mL) [pg/mL]	TNFα level ([1]; Donor 2, 3 ng/mL) [pg/mL]	IL-1β level ([1]; Donor 2, 30 ng/mL) [pg/mL]	IL-6 level ([1]; Donor 2, 30 ng/mL) [pg/mL]	IL-8 level ([1]; Donor 2, 30 ng/mL) [pg/mL]	TNFα level ([1]; Donor 2, 30 ng/mL) [pg/mL]	also measured
CC=C(C)C(=O)OC1C(C)C2(O)C(C3OC3(CO)C(O)C3(O)C(=O)C(C)=CC32)C2C(C)(C)C12OC(=O)C(C)CC (centres unmarked) [Compound 1, 12-tigloyl-13-(2-methylbutanoyl)-6,7-epoxy-4,5,9,12,13,20-hexahydroxy-1-tigliaen-3-one]	1.2 ± 0.2	9.7 ± 1.2	1720 ± 157	24.3 ± 1.4	11.9 ± 0.8	34.2 ± 1.1	16920 ± 1198	324.4 ± 0.0	39 ± 0.2	89.5 ± 13.8	16419 ± 40	355.0 ± 4.3	3.1 ± 0.9	8.3 ± 0.4	1493 ± 2	11.2 ± 0.3	43.9 ± 1.7	12.6 ± 0.9	24078 ± 815	209.6 ± 7.5	proliferation of HaCaT cells (MTT) vs control with no compound (HaCaT cells): increasing proliferation; production of reactive oxygen species (ROS) (neutrophils): induced the significant production of reactive oxygen species (ROS) in a dose-dependent manner; IL-1β level ([1]; Donor 2, 300 ng/mL): 121.6 ± 5.6 pg/mL; IL-6 level ([1]; Donor 2, 300 ng/mL): 38.8 ± 9.0 pg/mL; IL-8 level ([1]; Donor 2, 300 ng/mL): 32021 ± 1156 pg/mL; TNFα level ([1]; Donor 2, 300 ng/mL): 592.2 ± 24.7 pg/mL
CCC(C)C(=O)OC1C(C)C2(O)C(C3OC3(CO)C(O)C3(O)C(=O)C(C)=CC32)C2C(C)(C)C12OC(=O)C(C)CC (centres unmarked) [Compound 2, 12,13-di-(2-methylbutanoyl)-6,7-epoxy-4,5,9,12,13,20-hexahydroxy-1-tigliaen-3-one]	1.4 ± 1.2	9.1 ± 0.2	2099 ± 585	31.15 ± 6.9	1.21 ± 0.4	38 ± 3.9	18229 ± 2592	314.07 ± 37.9	37.7 ± 4.6	84.1 ± 3.6	16634 ± 625	330.0 ± 28.7	6.7 ± 1.5	14.9 ± 1.1	2608 ± 309	27.3 ± 8.3	52.6 ± 5.0	14.5 ± 3.3	26401 ± 271	211.5 ± 12.4	IL-1β level ([1]; Donor 2, 300 ng/mL): 123.9 ± 1.0 pg/mL; IL-6 level ([1]; Donor 2, 300 ng/mL): 41.4 ± 2.3 pg/mL; IL-8 level ([1]; Donor 2, 300 ng/mL): 34117 ± 630 pg/mL; TNFα level ([1]; Donor 2, 300 ng/mL): 618.1 ± 63.7 pg/mL
